Test results as given in patent publication US20210270813A1, “KIT, METHOD FOR SCREENING AN ACTIVE COMPOUND IN VITRO AND USES OF A KIT” (L'OREAL, priority 2018, published 2021).

Tested on: neurites emerging from the neurospheres
Assay: Maximum extension of neurites emerging from neurospheres in modified co-culture microdevice
Type: cell-based, human
Details: NGF added or not to the matrigel in the middle punched hole; 3N medium or 75% CM plus HEKn; FIG. 14C
Experimental: Keratinocytes moved faster than the dendrites and since removing the microdevice sometimes meant that neurospheres were pulled from the substrate, a hole between the wells of the same pair was punched and the keratinocytes were placed within this hole (FIG. 13A, red arrow). The region where there was a predominance of migrating neurites was observed and the highest migration radius was measured (FIG. 13B, blue arrow).
To further test this modified co-culture microdevice, the culture media (3N versus 75% CM from HEKn) and the presence (or not) of matrigel in the middle hole were compared by measuring the maximum extension of the neurites emerging from the neurospheres (FIG. 14A). There were no statistically significant differences. Then, the extension of neurites in the presence or absence of keratinocytes in the hole were compared. Again, no differences were observed (FIG. 14B). Finally, another variable was tested: adding NGF or not to the matrigel in the middle punched hole.

With nerve growth factor [NGF] the “maximum extension of the neurites (neurite migration)” value was “trend of NGF to increase migration”.
